Reference: US5565616A (priority 1994, dated 1996)
Where two headings read alike, the source gives them in different places.

Assays:
[1] = cited from earlier work; for Pyridine Conversion: 27.6 MPa
[2] = Sample pH before SCWO, after five-minute reactor residence time and after reactor cool down; type: physicochemical
Protocol: Fourteen tests were conducted to determine the by-product distribution of DMMP during SCWO at different oxygen concentrations in the presence of additives. Test conditions and procedures were the same as described in Example 1. Additive concentrations were based on achieving a 1:1 molar ratio of Na^+ ions to DMMP. Based on an initial concentration of DMMP of 10,000 mg/L, the initial concentrations of each additive were 3,224 mg/L for NaOH, 4,271 mg/L for Na2 CO3 and 15.4 g/L for Na2 B4 O7 (as Na2 B4 O7.10H2 O).
The pH of each sample was measured within one hour of sample collection. The presence of the additive affected the pH of the sample collected after a five minute reactor residence time only slightly. Since the pH of the initial solution had increased upon addition of the additive, it was expected that the pH of the sample collected at supercritical conditions would also increase. However, the effect was only slightly obvious due most likely to the precipitation of the additives at supercritical conditions. After reactor cool down, the pH of samples collected after cool down increased in the presence of the additive. The pH increase which occurred between the sample collected after five minutes reactor residence time and after reactor cool down was a result of the dissolution of precipitated additive. It is believed that sodium hydroxide, sodium carbonate and sodium borate dissolved after reactor cool down and neutralized the acidic solution which was observed after the five minute reactor residence time.

[3] = From the text: Calculations are based on the reported first-order reaction kinetic model
[4] = cited from earlier work
[5] = first-order oxidation, 24.6 MPa, 530-700 °C

## c1ccncc1 [pyridine]
[1]; Test 513: 522 °C, 6.6 sec, 1990 mg/L, O2 0.024 mole/L
  Pyridine Conversion: 74%
[1]; Test 516: 499 °C, 7.1 sec, 1990 mg/L, O2 0.026 mole/L
  Pyridine Conversion: 66%
[1]; Test 524: 499 °C, 7.1 sec, 3050 mg/L, O2 0.031 mole/L
  Pyridine Conversion: 75%
[1]; Test 525: 475 °C, 7.8 sec, 1990 mg/L, O2 0.029 mole/L
  Pyridine Conversion: 25%
[1]; Test 529: 451 °C, 8.8 sec, 3050 mg/L, O2 0.038 mole/L
  Pyridine Conversion: 6%
[1]; Test 541: 522 °C, 6.6 sec, 3050 mg/L, O2 0.027 mole/L
  Pyridine Conversion: 94%
[1]; Test 542: 474 °C, 7.8 sec, 3050 mg/L, O2 0.035 mole/L
  Pyridine Conversion: 22%
[1]; Test 661: 527 °C, 3.8 sec, 3530 mg/L, O2 0.010 mole/L
  Pyridine Conversion: 55%
[1]; Test 668: 525 °C, 3.9 sec, 3530 mg/L, O2 0.014 mole/L
  Pyridine Conversion: 53%
[1]; Test 676: 527 °C, 3.8 sec, 3530 mg/L, O2 0.020 mole/L
  Pyridine Conversion: 68%
[1]; at 524 °C (Test No. 524)
  pyridine converted: 75%

## sodium hydroxide [NaOH]
[2]; hydrolysis
  pH, 5 Min. Reactor Resid. Time: 2.1
  pH, After Reactor Cool Down: 5.3
  pH, Initial: 12.3
[2]; oxidation
  pH, 5 Min. Reactor Resid. Time: 3.6
  pH, After Reactor Cool Down: 5.0
  pH, Initial: 12.3
[2]; partial oxidation
  pH, 5 Min. Reactor Resid. Time: 2.2
  pH, After Reactor Cool Down: 6.0
  pH, Initial: 12.3

## N [ammonia]
[3]; 400 °C
  Reactor Residence Time Required to Achieve 9% Conversion: 774 min
  Reactor Residence Time Required to Achieve 90% Conversion: 18888 min
  Reactor Residence Time Required to Achieve 99% Conversion: 37775 min
  Reactor Residence Time Required to Achieve 99.9% Conversion: 56663 min
  Reactor Residence Time Required to Achieve 99.99% Conversion: 75551 min
[3]; 450 °C
  Reactor Residence Time Required to Achieve 9% Conversion: 111 min
  Reactor Residence Time Required to Achieve 90% Conversion: 2710 min
  Reactor Residence Time Required to Achieve 99% Conversion: 5421 min
  Reactor Residence Time Required to Achieve 99.9% Conversion: 8131 min
  Reactor Residence Time Required to Achieve 99.99% Conversion: 10842 min
[3]; 500 °C
  Reactor Residence Time Required to Achieve 9% Conversion: 20 min
  Reactor Residence Time Required to Achieve 90% Conversion: 500 min
  Reactor Residence Time Required to Achieve 99% Conversion: 1000 min
  Reactor Residence Time Required to Achieve 99.9% Conversion: 1500 min
  Reactor Residence Time Required to Achieve 99.99% Conversion: 2000 min
[3]; 550 °C
  Reactor Residence Time Required to Achieve 9% Conversion: 5 min
  Reactor Residence Time Required to Achieve 90% Conversion: 113 min
  Reactor Residence Time Required to Achieve 99% Conversion: 227 min
  Reactor Residence Time Required to Achieve 99.9% Conversion: 340 min
  Reactor Residence Time Required to Achieve 99.99% Conversion: 453 min
[3]; 600 °C
  Reactor Residence Time Required to Achieve 9% Conversion: 0.1 min
  Reactor Residence Time Required to Achieve 90% Conversion: 3 min
  Reactor Residence Time Required to Achieve 99% Conversion: 7 min
  Reactor Residence Time Required to Achieve 99.9% Conversion: 10 min
  Reactor Residence Time Required to Achieve 99.99% Conversion: 13 min
[3]; below 450 °C
  reactor residence time required to convert 10% ammonia: at least two hours
[4]; [5]
  activation energy: 37.5 kcal/mol
  pre-exponential factor: 3.16e+06 s⁻¹
[4]; supercritical water
  temperature at which oxidation rate becomes appreciable: greater than 550 °C

## O.O.O.O.O.O.O.O.O.O.[Na+].[Na+].[O-]B1OB2OB([O-])OB(O1)O2 [Na2 B4 O7, sodium borate]
[2]; hydrolysis
  pH, 5 Min. Reactor Resid. Time: 2.8
  pH, After Reactor Cool Down: 7.0
  pH, Initial: 9
[2]; partial oxidation
  pH, 5 Min. Reactor Resid. Time: 3.2
  pH, After Reactor Cool Down: 7.3
  pH, Initial: 9
